Results on nine compounds are retold here after US5270316A, “Condensed purine derivatives” (Kyowa Hakko Kogyo Co., Ltd., priority 1989, dated 1993).

SMILES strings stand for the structures. A value given as a limit tells only on which side of the number the result lay.

System in the first data set: not listed separately
Nature of the data set: Acute toxicity, minimum lethal dose (oral, mice). It is filed as in vivo. The settings on record: male dd-mice, mortality observed for seven days. The procedure:
The compounds were orally administrated to male dd-mice weighing 20±1 g. Minimum lethal dose (MLD) was determined by observing the mortality for seven days after the administration.
For the compound `CCCN1C(=O)N2CC(Cc3ccccc3)N=C2c2[nH]c(C3CCCC3)nc21` (centres unmarked) [12 Sa], the “Minimum lethal dose (MLD)” value is given as greater than 300 mg/kg.

In the case of `CCCC1CN2C(=O)N(CCC)c3nc(C4CCCC4)[nH]c3C2=N1` (centres unmarked) [17 Sa], the “Minimum lethal dose (MLD)” value is greater than 300 mg/kg.

In the case of `CCCN1C(=O)N2C(=NCC2CC)c2[nH]c(C3CCCC3)nc21` (centres unmarked) [18 Sa], the “Minimum lethal dose (MLD)” value is recorded as greater than 300 mg/kg.

Turning to `CCCN1C(=O)N2C(=NCC2C)c2[nH]c(C3CCCC3)nc21` (centres unmarked) [19 Sa], the “Minimum lethal dose (MLD)” value is recorded as greater than 300 mg/kg.

For `O=c1c2[nH]cnc2nc2n1CCCC2` [Compound 24, 1,5,6,7,8,10-Hexahydropyrido[1,2-a]purin-10-one], the “Minimum lethal dose (MLD)” value is reported as greater than 300 mg/kg.

For the compound `Cn1cnc2nc3n(c(=O)c21)CCCC3` [Compound 25, 1-Methyl-1,5,6,7,8,10-hexahydropyrido[1,2-a]purin-10-one], the “Minimum lethal dose (MLD)” value is reported as greater than 300 mg/kg.

A further data set relates to Glycerol-induced Renal Deficient Model. Put plainly: Renal protecting activity (glycerol-induced renal deficient model): serum creatinine and urea nitrogen. It is filed as in vivo, rat (Wistar male rats). To be noted: 10 mg/kg intraperitoneal, rats, 24 hours after glycerol injection; own control beside each compound; normal control 0.50. The procedure: It is well known that subcutaneous or intramuscular administration of glycerol to rat induce acute renal insufficiency characterized by renal tubular disturbance [Can J. Physiol.
Wistar male rats (fasted both food and water for 18 hours) were used. A test compound or saline (control) was intraperitoneally administered (dose: 10 mg/kg) to rats. After 30 minutes rats were anesthesized with ether and the back skin was picked up and 0.8 ml/100 g of 50% glycerol was subcutaneously administered. 24 hours after the glycerol injection, the rats were anesthesized with ether and 5 ml of the blood was collected from the descending aorta. To obtain the serum, after allowing it to stand for 30 minutes or longer, the blood sample was centrifuged at 3000 rpm for 10 minutes. Creatinine in the serum sample was determined using autoanalyzer (AU510, Olympus) or clinical analysis kit of creatinine (Creatinine Test Wako; by Wako Pure Chemical Ind., Japan). Urea nitrogen in the serum was determined using autoanalyzer (AU510; made by Olympus Optical Co., Ltd, Japan) or clinical analysis kit of urea nitrogen (Urea nitrogen test wako; by Wako Pure Chemical Ind., Japan).
`CCCN1C(=O)N2CC(C)N=C2c2[nH]c(C3CCCC3)nc21` (centres unmarked) [16 Sa]: the “Creatinine in serum, glycerol treated, test compound administrated” value (“Creatinine in serum, glycerol treated” for short) was 2.38 ± 0.24 mg/dL.

Regarding `CCCC1CN2C(=O)N(CCC)c3nc(C4CCCC4)[nH]c3C2=N1` (centres unmarked) [17 Sa], the “Creatinine in serum, glycerol treated” value was 2.35 ± 0.11 mg/dL.

With `CCCN1C(=O)N2C(=NCC2CC)c2[nH]c(C3CCCC3)nc21` (centres unmarked) [18 Sa], the “Creatinine in serum, glycerol treated” value is 2.85 ± 0.33 mg/dL.

For `Cn1c(=O)c2[nH]cnc2n(C)c1=O` [Aminophylline, reference compound], the “Creatinine in serum, glycerol treated” value came to 1.72 ± 0.07 mg/dL.

On to `NS(=O)(=O)c1cc(C(=O)O)c(NCc2ccco2)cc1Cl` [Furosemide, reference compound], for which the “Creatinine in serum, glycerol treated” value stood at 4.17 ± 0.41 mg/dL.

Staying with this data set, now noted: 10 mg/kg intraperitoneal, rats, 24 hours after glycerol injection; own control beside each compound; normal control 15.2.
As for `CCCN1C(=O)N2CC(C)N=C2c2[nH]c(C3CCCC3)nc21` (centres unmarked) [16 Sa], the “Urea nitrogen in serum, glycerol treated, test compound administrated” value (“Urea nitrogen in serum, glycerol treated” below) was 80.9 ± 9.5 mg/dL.

Regarding `CCCC1CN2C(=O)N(CCC)c3nc(C4CCCC4)[nH]c3C2=N1` (centres unmarked) [17 Sa], the “Urea nitrogen in serum, glycerol treated” value stood at 88.0 ± 4.9 mg/dL.

As for `CCCN1C(=O)N2C(=NCC2CC)c2[nH]c(C3CCCC3)nc21` (centres unmarked) [18 Sa], the “Urea nitrogen in serum, glycerol treated” value turned out to be 101.2 ± 9.9 mg/dL.

Take `Cn1c(=O)c2[nH]cnc2n(C)c1=O` [Aminophylline, reference compound]: the “Urea nitrogen in serum, glycerol treated” value worked out at 30.6 ± 2.0 mg/dL.

As for `NS(=O)(=O)c1cc(C(=O)O)c(NCc2ccco2)cc1Cl` [Furosemide, reference compound], the “Urea nitrogen in serum, glycerol treated” value is 150.3 ± 13.7 mg/dL.

System in a further data set: not listed separately
Put plainly: Diuretic activity (oral, urine collected for 6 hours). It is filed as in vivo, rat (Wistar male rats). The settings on record: Rattus norvegicus, 1.6 mg/kg oral, rats, relative value for control (1.00), read-out: Na+/K+. The procedure: Wistar male rats weighing 150 to 300 g were used after they were fasted for 18 hours. A test compound or saline (control) was orally administered to rats and urine was collected for 6 hours. The test was performed using 3 groups per the test compound, and each group consists of 3 animals. The urine was metered by a measuring cylinder and electrolytes (Na^+ and K^+) in the urine were assayed with a flame photometer (model […] manufactured by Hitachi Ltd.). Parameters in Table 3 are all expressed by relative value for control.
As for `CCCN1C(=O)N2CC(Cc3ccccc3)N=C2c2[nH]c(C3CCCC3)nc21` (centres unmarked) [12 Sa], the response vs control in vivo at 1.6 mg/kg was determined as 152%.

In the case of `CCCN1C(=O)N2CC(C)N=C2c2[nH]c(C3CCCC3)nc21` (centres unmarked) [16 Sa], the response vs control in vivo at 1.6 mg/kg is 152%.

The data set is the same for the next values; noted with them: Rattus norvegicus, 1.6 mg/kg oral, rats, relative value for control, read-out: Excretion of K+.
Turning to `CCCN1C(=O)N2CC(Cc3ccccc3)N=C2c2[nH]c(C3CCCC3)nc21` (centres unmarked) [12 Sa], the response vs control in vivo at 1.6 mg/kg worked out at 33%.

In the case of `CCCN1C(=O)N2CC(C)N=C2c2[nH]c(C3CCCC3)nc21` (centres unmarked) [16 Sa], the response vs control in vivo at 1.6 mg/kg amounted to 31%.

The data set is the same for the next values; noted with them: Rattus norvegicus, 1.6 mg/kg oral, rats, relative value for control, read-out: Excretion of Na+.
Regarding `CCCN1C(=O)N2CC(Cc3ccccc3)N=C2c2[nH]c(C3CCCC3)nc21` (centres unmarked) [12 Sa], the response vs control in vivo at 1.6 mg/kg is 102%.

On to `CCCN1C(=O)N2CC(C)N=C2c2[nH]c(C3CCCC3)nc21` (centres unmarked) [16 Sa], for which the response vs control in vivo at 1.6 mg/kg is 99%.

Still in this data set, the particulars now being: Rattus norvegicus, 1.6 mg/kg oral, rats, relative value for control, read-out: Urine volume.
`CCCN1C(=O)N2CC(Cc3ccccc3)N=C2c2[nH]c(C3CCCC3)nc21` (centres unmarked) [12 Sa]: the response vs control in vivo at 1.6 mg/kg was determined as 159%.

Consider `CCCN1C(=O)N2CC(C)N=C2c2[nH]c(C3CCCC3)nc21` (centres unmarked) [16 Sa], for which the response vs control in vivo at 1.6 mg/kg amounted to 80%.

Staying with this data set, now noted: Rattus norvegicus, 6.25 mg/kg oral, rats, relative value for control (1.00), read-out: Na+/K+.
Take `CCCC1CN2C(=O)N(CCC)c3nc(C4CCCC4)[nH]c3C2=N1` (centres unmarked) [17 Sa]: the response vs control in vivo at 6.25 mg/kg amounted to 291%.

The data set is the same for the next values; noted with them: Rattus norvegicus, 6.25 mg/kg oral, rats, relative value for control, read-out: Excretion of K+.
In the case of `CCCC1CN2C(=O)N(CCC)c3nc(C4CCCC4)[nH]c3C2=N1` (centres unmarked) [17 Sa], the response vs control in vivo at 6.25 mg/kg was 18%.

Still in this data set, the particulars now being: Rattus norvegicus, 6.25 mg/kg oral, rats, relative value for control, read-out: Excretion of Na+.
Regarding `CCCC1CN2C(=O)N(CCC)c3nc(C4CCCC4)[nH]c3C2=N1` (centres unmarked) [17 Sa], the response vs control in vivo at 6.25 mg/kg is 158%.

Still in this data set, the particulars now being: Rattus norvegicus, 6.25 mg/kg oral, rats, relative value for control, read-out: Urine volume.
For the compound `CCCC1CN2C(=O)N(CCC)c3nc(C4CCCC4)[nH]c3C2=N1` (centres unmarked) [17 Sa], the response vs control in vivo at 6.25 mg/kg worked out at 138%.

Staying with this data set, now noted: Rattus norvegicus, 25 mg/kg oral, rats, relative value for control (1.00), read-out: Na+/K+.
In the case of `CCCN1C(=O)N2C(=NCC2CC)c2[nH]c(C3CCCC3)nc21` (centres unmarked) [18 Sa], the response vs control in vivo at 25 mg/kg was 120%.

As for `CCCN1C(=O)N2C(=NCC2C)c2[nH]c(C3CCCC3)nc21` (centres unmarked) [19 Sa], the response vs control in vivo at 25 mg/kg stood at 143%.

In the case of `NS(=O)(=O)c1cc(C(=O)O)c(NCc2ccco2)cc1Cl` [Furosemide, reference compound], the response vs control in vivo at 25 mg/kg was determined as 107%.

The data set is the same for the next values; noted with them: Rattus norvegicus, 25 mg/kg oral, rats, relative value for control, read-out: Excretion of K+.
As for `CCCN1C(=O)N2C(=NCC2CC)c2[nH]c(C3CCCC3)nc21` (centres unmarked) [18 Sa], the response vs control in vivo at 25 mg/kg is 37%.

As for `CCCN1C(=O)N2C(=NCC2C)c2[nH]c(C3CCCC3)nc21` (centres unmarked) [19 Sa], the response vs control in vivo at 25 mg/kg came out at 31%.

The data set is the same for the next values; noted with them: Rattus norvegicus, 25 mg/kg oral, rats, relative value for control, read-out: Excretion of Na+.
As to `CCCN1C(=O)N2C(=NCC2CC)c2[nH]c(C3CCCC3)nc21` (centres unmarked) [18 Sa], the response vs control in vivo at 25 mg/kg was 65%.

With `CCCN1C(=O)N2C(=NCC2C)c2[nH]c(C3CCCC3)nc21` (centres unmarked) [19 Sa], the response vs control in vivo at 25 mg/kg was found to be 87%.

The data set is the same for the next values; noted with them: Rattus norvegicus, 25 mg/kg oral, rats, relative value for control, read-out: Urine volume.
Turning to `CCCN1C(=O)N2C(=NCC2CC)c2[nH]c(C3CCCC3)nc21` (centres unmarked) [18 Sa], the response vs control in vivo at 25 mg/kg is 92%.

On to `CCCN1C(=O)N2C(=NCC2C)c2[nH]c(C3CCCC3)nc21` (centres unmarked) [19 Sa], for which the response vs control in vivo at 25 mg/kg was determined as 111%.

For the compound `NS(=O)(=O)c1cc(C(=O)O)c(NCc2ccco2)cc1Cl` [Furosemide, reference compound], the response vs control in vivo at 25 mg/kg came to 75%.
